Reference: patent US11971412B2, “Polypeptide-antibody complexes and uses thereof” (Mayo Foundation for Medical Education and Research, priority 2017, dated 2024)
Ends that are not written are not given here.

What was measured:
[1] = tested on: CD20+ Daudi lymphoma cells; experiment: Flow cytometry staining of CD20+ Daudi lymphoma cells; format: cell-based; conditions: CD20+ Daudi lymphoma cells incubated 30 minutes at 4° C., washed with FACS buffer
Protocol: FIG. 1 is a series of scatter plots from flow cytometry studies using a polypeptide having the sequence […] (SEQ ID NO:3) that was labeled with QDs that emit at a wavelength of 565 nm, and complexed with a therapeutic antibody (rituximab). […] CD20+ Daudi lymphoma cells were incubated with isotype control, FITC-rituximab, peptide-QD only, peptide-QD+rituximab (10:1), and peptide-QD+rituximab (25:1) for 30 minutes at 4° C. After washing with FAGS buffer (PBS+0.5% BSA and 0.5% Na azide), the stained cells were analyzed by flow cytometry for recognition of CD20. The Daudi cells were 95% CD20+ (top left), 11.62% positive when stained with peptide-QD only (bottom left), and 57.02% and 61.31% positive with peptide-QD-rituximab at 10:1 and 25:1 (bottom center and bottom right, respectively).
The fluorescently labeled peptide was then bound to rituximab, trastuzumab, or atezolizumab and tested for binding to tumor cells expressing the pertinent tumor target. […] CD20+ Daudi lymphoma cells were incubated with isotype control, FITC-rituximab, polypeptide-QD only, polypeptide-QD-rituximab (10:1) complex, and polypeptide-QD-rituximab (25:1) complex for 30 minutes at 4° C. After washing with FACS buffer (PBS+0.5% BSA and 0.5% Na azide), the stained cells were analyzed by flow cytometry. […]

[2] = tested on: SK-Br-3 (HER2/neu-positive) cells; experiment: Flow cytometry staining of HER2/neu-positive SK-Br-3 cells; format: cell-based
Protocol: FIG. 4 is a series of scatter plots from flow cytometry studies using SK-Br-3 (HER2/neu-positive) cells stained with a SEQ ID NO:3-QD-trastuzumab complex. The SK-Br-3 cells were incubated with isotype control antibody (top left), PE-anti-HER2 (top middle), SEQ ID NO:3-QD only (top right), and SEQ ID NO:3-QD-trastuzumab complex (bottom left). The cells were 84.7% positive for HER2/neu, 15.9% positive with SEQ ID NO:3-QD only and 68.9% positive with SEQ ID NO:3-QD-trastuzumab complex. A histogram representation of the data is included at the bottom right of the figure.
Additional experiments utilized HER2/neu-positive SK-Br-3 cells stained with polypeptide-QD bound to trastuzumab. The SK-Br-3 cells were incubated with isotype (FIG. 4, top left), PE-anti-HER2 (FIG. 4, top middle), polypeptide-QD only (FIG. 4, top right), and polypeptide-QD-trastuzumab complex (FIG. 4, bottom left). The cells were 84.7% positive for HER2/neu, 15.9% positive with polypeptide-QD only and 68.9% positive with the polypeptide-QD-trastuzumab complex. A histogram representation of the data is shown at the bottom right of […].

Substance | Daudi cells positive by flow cytometry [1] [%] | SK-Br-3 cells positive by flow cytometry [2] [%]
FITC-rituximab: FITC-labeled rituximab used as direct CD20 stain of Daudi cells [reference compound] | 95 | 
polypeptide-QD only: SEQ ID NO:3 polypeptide thiol-linked via SMCC crosslinker to PEG-coated Quantum Dots, without antibody (CGSGGGSVVLNQLCVLHEKTPVSDR; not fully specified (residue 1); also: Cys1 thiol linked via SMCC to PEG-coated quantum dot) | 11.62 | 15.9
